Legend:
Type in all cases: in vivo
[1] = tested on: Green Peach Aphid ("GPA") (Myzus persicae), wingless adult and nymph stages; assay: Bioassay on green peach aphid (GPA), foliar spray on infested cabbage seedlings; conditions: Myzus persicae, foliar, 72 h, read-out: GPA (Biological Results, rating)
How it was run: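 Cabbage seedlings with 2-3 true leaves, infested one day earlier with 20-50 wingless adult and nymph GPA, sprayed to runoff on both leaf sides; solvent check held 20% acetone/methanol (1:1). Live aphids counted after three days at about 25° C; corrected % control = 100*(X−Y)/X versus solvent check.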

[2] = tested on: Beet Armyworm (Spodoptera exigua) ("BAW"), second instar larvae; assay: Bioassay on beet armyworm (BAW), 128-well diet tray assay; conditions: Spodoptera exigua, read-out: BAW (Biological Results, rating)
How it was run: (§1)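 Sealed trays, 25° C., 14:10 light:dark, 5–7 d. Per-well % mortality recorded, mean of eight wells reported.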

[3] = tested on: Cabbage Looper (Trichoplusia ni) ("CL"), second instar larvae; assay: Bioassay on cabbage looper (CL), 128-well diet tray assay; conditions: Trichoplusia ni, read-out: CL (Biological Results, rating)
How it was run: as §1

CCCc1ccc(N(C)C)cc1N1C(=O)CS/C1=N\C(=O)Nc1ccc(-c2ncn(-c3ccc(OC(F)(F)F)cc3)n2)cc1F [Compound J196, (Z)-1-(3-(5-(Dimethylamino)-2-propylphenyl)-4-oxothiazolidin-2-ylidene)-3-(2-fluoro-4-(1-(4-(trifluoromethoxy)phenyl)-1H-1,2,4-triazol-3-yl)phenyl)urea]
pest or weed control at 200 µg/mL [1]: 0 to 80%
pest or weed control at 50 µg/cm2 [2]: 50 to 100%
pest or weed control at 50 µg/cm2 [3]: 50 to 100%

Cc1ccc(OCC(F)(F)F)c(N2C(=O)CS/C2=N\C(=O)Nc2ccc(-c3ncn(-c4ccc(SC(F)(F)F)cc4)n3)cc2F)c1 [Compound J223, (Z)-1-(2-Fluoro-4-(1-(4-((trifluoromethyl)thio)phenyl)-1H-1,2,4-triazol-3-yl)phenyl)-3-(3-(5-methyl-2-(2,2,2-trifluoroethoxy)phenyl)-4-oxothiazolidin-2-ylidene)urea]
pest or weed control at 200 µg/mL [1]: 0 to 80%
pest or weed control at 50 µg/cm2 [2]: 50 to 100%
pest or weed control at 50 µg/cm2 [3]: 50 to 100%

CCOc1ccc(C)cc1N1C(=O)CS/C1=N\C(=O)Nc1ccc(-c2ncn(-c3ccc(SC(F)(F)F)cc3)n2)cc1F [Compound J224, (Z)-1-(3-(2-Ethoxy-5-methylphenyl)-4-oxothiazolidin-2-ylidene)-3-(2-fluoro-4-(1-(4-((trifluoromethyl)thio)phenyl)-1H-1,2,4-triazol-3-yl)phenyl)urea]
pest or weed control at 200 µg/mL [1]: 0 to 80%
pest or weed control at 50 µg/cm2 [2]: 50 to 100%
pest or weed control at 50 µg/cm2 [3]: 50 to 100%

Cc1ccc(OCCCC(F)(F)F)c(N2C(=O)CS/C2=N\C(=O)Nc2ccc(-c3ncn(-c4ccc(SC(F)(F)F)cc4)n3)cc2F)c1 [Compound J225, (Z)-1-(2-Fluoro-4-(1-(4-((trifluoromethyl)thio)phenyl)-1H-1,2,4-triazol-3-yl)phenyl)-3-(3-(5-methyl-2-(4,4,4-trifluorobutoxy)phenyl)-4-oxothiazolidin-2-ylidene)urea]
pest or weed control at 200 µg/mL [1]: 0 to 80%
pest or weed control at 50 µg/cm2 [2]: 50 to 100%
pest or weed control at 50 µg/cm2 [3]: 50 to 100%

COC(c1ccc(C)cc1N1C(=O)CS/C1=N\C(=O)Nc1ccc(-c2ncn(-c3ccc(SC(F)(F)F)cc3)n2)cc1F)C(F)(F)F (stereo not drawn) [Compound J229, (Z)-1-(2-Fluoro-4-(1-(4-((trifluoromethyl)thio)phenyl)-1H-1,2,4-triazol-3-yl)phenyl)-3-(3-(5-methyl-2-(2,2,2-trifluoro-1-methoxyethyl)phenyl)-4-oxothiazolidin-2-ylidene)urea]
pest or weed control at 200 µg/mL [1]: 0 to 80%
pest or weed control at 50 µg/cm2 [2]: 50 to 100%
pest or weed control at 50 µg/cm2 [3]: 50 to 100%

CCOC(C)c1ccc(C)cc1N1C(=O)CS/C1=N\C(=O)Nc1ccc(-c2ncn(-c3ccc(SC(F)(F)F)cc3)n2)cc1F (stereo not drawn) [Compound J230, (Z)-1-(3-(2-(1-Ethoxyethyl)-5-methylphenyl)-4-oxothiazolidin-2-ylidene)-3-(2-fluoro-4-(1-(4-((trifluoromethyl)thio)phenyl)-1H-1,2,4-triazol-3-yl)phenyl)urea]
pest or weed control at 200 µg/mL [1]: 0 to 80%
pest or weed control at 50 µg/cm2 [2]: 50 to 100%
pest or weed control at 50 µg/cm2 [3]: 50 to 100%

Cc1ccc(C(C)C)c(N2C(=O)CS/C2=N\C(=O)Nc2ccc(-c3ncn(-c4ccc(SC(F)(F)F)cc4)n3)cc2Cl)c1 [Compound J231, (Z)-1-(2-Chloro-4-(1-(4-((trifluoromethyl)thio)phenyl)-1H-1,2,4-triazol-3-yl)phenyl)-3-(3-(2-isopropyl-5-methylphenyl)-4-oxothiazolidin-2-ylidene)urea]
pest or weed control at 200 µg/mL [1]: 0 to 80%
pest or weed control at 50 µg/cm2 [2]: 50 to 100%
pest or weed control at 50 µg/cm2 [3]: 50 to 100%

COC(C)c1ccc(C)cc1N1C(=O)CS/C1=N\C(=O)Nc1ccc(-c2ncn(-c3ccc(SC(F)(F)F)cc3)n2)cc1Cl (stereo not drawn) [Compound J232, (Z)-1-(2-Chloro-4-(1-(4-((trifluoromethyl)thio)phenyl)-1H-1,2,4-triazol-3-yl)phenyl)-3-(3-(2-(1-methoxyethyl)-5-methylphenyl)-4-oxothiazolidin-2-ylidene)urea]
pest or weed control at 200 µg/mL [1]: 0 to 80%
pest or weed control at 50 µg/cm2 [2]: 50 to 100%
pest or weed control at 50 µg/cm2 [3]: 50 to 100%

Cc1ccc(C(C)C)c(N2C(=O)CS/C2=N\C(=O)Nc2ccc(-c3ncn(-c4ccc(C#N)cc4)n3)cc2F)c1 [Compound J287, (Z)-1-(4-(1-(4-Cyanophenyl)-1H-1,2,4-triazol-3-yl)-2-fluorophenyl)-3-(3-(2-isopropyl-5-methylphenyl)-4-oxothiazolidin-2-ylidene)urea]
pest or weed control at 200 µg/mL [1]: 0 to 80%
pest or weed control at 50 µg/cm2 [2]: 50 to 100%
pest or weed control at 50 µg/cm2 [3]: 50 to 100%

Cc1ccc(OCCC(F)(F)F)c(N2C(=O)CS/C2=N\C(=O)Nc2ccc(-c3ncn(-c4ccc(C#N)cc4)n3)cc2F)c1 [Compound J288, (Z)-1-(4-(1-(4-Cyanophenyl)-1H-1,2,4-triazol-3-yl)-2-fluorophenyl)-3-(3-(5-methyl-2-(3,3,3-trifluoropropoxy)phenyl)-4-oxothiazolidin-2-ylidene)urea]
pest or weed control at 200 µg/mL [1]: 0 to 80%
pest or weed control at 50 µg/cm2 [2]: 50 to 100%
pest or weed control at 50 µg/cm2 [3]: 50 to 100%

Cc1ccc(COCC(F)(F)F)c(N2C(=O)CS/C2=N\C(=O)Nc2ccc(-c3ncn(-c4ccc(C#N)cc4)n3)cc2F)c1 [Compound J289, (Z)-1-(4-(1-(4-Cyanophenyl)-1H-1,2,4-triazol-3-yl)-2-fluorophenyl)-3-(3-(5-methyl-2-((2,2,2-trifluoroethoxy)methyl)phenyl)-4-oxothiazolidin-2-ylidene)urea]
pest or weed control at 200 µg/mL [1]: 0 to 80%
pest or weed control at 50 µg/cm2 [2]: 50 to 100%
pest or weed control at 50 µg/cm2 [3]: 50 to 100%

COC(C)c1ccc(C)cc1N1C(=O)CS/C1=N\C(=O)Nc1ccc(-c2ncn(-c3ccc(C#N)cc3)n2)cc1F (stereo not drawn) [Compound J291, (Z)-1-(4-(1-(4-Cyanophenyl)-1H-1,2,4-triazol-3-yl)-2-fluorophenyl)-3-(3-(2-(1-methoxyethyl)-5-methylphenyl)-4-oxothiazolidin-2-ylidene)urea]
pest or weed control at 200 µg/mL [1]: 0 to 80%
pest or weed control at 50 µg/cm2 [2]: 50 to 100%
pest or weed control at 50 µg/cm2 [3]: 50 to 100%

COc1ccc(C(C)C)c(N2C(=O)CS/C2=N\C(=O)Nc2ccc(-c3ncn(-c4ccc(OC(F)(F)F)cc4)n3)cc2F)c1 [Compound J312]
pest or weed control at 200 µg/mL [1]: 0 to 80%
pest or weed control at 50 µg/cm2 [2]: 50 to 100%
pest or weed control at 50 µg/cm2 [3]: 50 to 100%

Cc1ccc(C(C)C)c(N2C(=O)C(Cl)S/C2=N\C(=O)Nc2ccc(-c3ncn(-c4ccc(OC(F)(F)F)cc4)n3)cc2)c1 (stereo not drawn) [Compound J314, (Z)-1-(5-Chloro-3-(2-isopropyl-5-methylphenyl)-4-oxothiazolidin-2-ylidene)-3-(4-(1-(4-(trifluoromethoxy)phenyl)-1H-1,2,4-triazol-3-yl)phenyl)urea]
pest or weed control at 200 µg/mL [1]: 0 to 80%
pest or weed control at 50 µg/cm2 [2]: 50 to 100%
pest or weed control at 50 µg/cm2 [3]: 50 to 100%

Cc1ccc(OCCC(F)(F)F)c(N2C(=O)CS/C2=N\C(=O)Nc2ccc(-c3ncn(-c4ccc(C(F)(F)F)cc4)n3)cc2)c1 [Compound J315, (Z)-1-(3-(5-Methyl-2-(3,3,3-trifluoropropoxy)phenyl)-4-oxothiazolidin-2-ylidene)-3-(4-(1-(4-(trifluoromethyl)phenyl)-1H-1,2,4-triazol-3-yl)phenyl)urea]
pest or weed control at 200 µg/mL [1]: 0 to 80%
pest or weed control at 50 µg/cm2 [2]: 50 to 100%
pest or weed control at 50 µg/cm2 [3]: 50 to 100%

Cc1ccc(OCCC(F)(F)F)c(N2C(=O)CS/C2=N\C(=O)Nc2ccc(-c3ncn(-c4ccc(OC(F)(F)F)cc4)n3)cc2)c1 [Compound J316, (Z)-1-(3-(5-Methyl-2-(3,3,3-trifluoropropoxy)phenyl)-4-oxothiazolidin-2-ylidene)-3-(4-(1-(4-(trifluoromethoxy)phenyl)-1H-1,2,4-triazol-3-yl)phenyl)urea]
pest or weed control at 200 µg/mL [1]: 0 to 80%
pest or weed control at 50 µg/cm2 [2]: 50 to 100%
pest or weed control at 50 µg/cm2 [3]: 50 to 100%

CC(C)c1ccc(N(C)C)cc1N1C(=O)CS/C1=N\C(=O)Nc1ccc(-c2ncn(-c3ccc(OC(F)(F)F)cc3)n2)cc1F [Compound J318, (Z)-1-(3-(5-(Dimethylamino)-2-isopropylphenyl)-4-oxothiazolidin-2-ylidene)-3-(2-fluoro-4-(1-(4-(trifluoromethoxy)phenyl)-1H-1,2,4-triazol-3-yl)phenyl)urea]
pest or weed control at 200 µg/mL [1]: 0 to 80%
pest or weed control at 50 µg/cm2 [2]: 50 to 100%
pest or weed control at 50 µg/cm2 [3]: 50 to 100%

CC(C)c1ccc(N(C)C)cc1N1C(=O)CS/C1=N\C(=O)Nc1ccc(-c2ncn(-c3ccc(OC(F)(F)F)cc3)n2)cc1 [Compound J319, (Z)-1-(3-(5-(Dimethylamino)-2-isopropylphenyl)-4-oxothiazolidin-2-ylidene)-3-(4-(1-(4-(trifluoromethoxy)phenyl)-1H-1,2,4-triazol-3-yl)phenyl)urea]
pest or weed control at 200 µg/mL [1]: 0 to 80%
pest or weed control at 50 µg/cm2 [2]: 50 to 100%
pest or weed control at 50 µg/cm2 [3]: 50 to 100%

COc1ccc(C(C)C)c(N2C(=O)CS/C2=N\C(=O)Nc2ccc(-c3ncn(-c4cccc(C(F)(F)F)c4)n3)cc2)c1 [Compound J324, (Z)-1-(3-(2-Isopropyl-5-methoxyphenyl)-4-oxothiazolidin-2-ylidene)-3-(4-(1-(3-(trifluoromethyl)phenyl)-1H-1,2,4-triazol-3-yl)phenyl)urea]
pest or weed control at 200 µg/mL [1]: 0 to 80%
pest or weed control at 50 µg/cm2 [2]: 50 to 100%
pest or weed control at 50 µg/cm2 [3]: 50 to 100%

CC(C)c1ccc(N(C)C)cc1N1C(=O)CS/C1=N\C(=O)Nc1ccc(-c2ncn(-c3cccc(C(F)(F)F)c3)n2)cc1 [Compound J325, (Z)-1-(3-(5-(Dimethylamino)-2-isopropylphenyl)-4-oxothiazolidin-2-ylidene)-3-(4-(1-(3-(trifluoromethyl)phenyl)-1H-1,2,4-triazol-3-yl)phenyl)urea]
pest or weed control at 200 µg/mL [1]: 0 to 80%
pest or weed control at 50 µg/cm2 [2]: 50 to 100%
pest or weed control at 50 µg/cm2 [3]: 50 to 100%

From patent US20230077362A1 (CORTEVA AGRISCIENCE LLC, priority 2019, published 2023)
